The results in this text go back to ChEMBL document CHEMBL1121555, “Quantitative structure-selectivity relationships. Comparison of the inhibition of Escherichia coli and bovine liver dihydrofolate reductase by 5-(substituted-benzyl)-2,4-diaminopyrimidines” (J Med Chem, 1980).

One data set is described as follows: Compound was evaluated for the partition coefficients probably at the […] at the aqueous phase 0.1 N HCl. In kind it is physicochemical. Conditions: 0.1 N HCl (aqueous phase).
Regarding `COc1cccc(Cc2cnc(N)nc2N)c1`, the logD (as a rule, the decadic logarithm of the distribution of all forms, ionised or not, between an organic phase and buffer at a given pH) is -0.92.

For the compound `CC(=O)Nc1ccc(Cc2cnc(N)nc2N)cc1`, the logD is -1.94.

Compound `Cc1cccc(Cc2cnc(N)nc2N)c1` showed a logD of -0.51.

`Nc1ncc(Cc2ccc([N+](=O)[O-])cc2)c(N)n1` returned a logD of -1.03.

`Nc1ncc(Cc2cccc(F)c2)c(N)n1` displayed a logD of -0.8.

The compound `Nc1ncc(Cc2ccccc2)c(N)n1` displayed a logD of -1.03.

Take `Nc1ncc(Cc2cccc(OCc3ccccc3)c2)c(N)n1`: the logD was 0.53.

As for `Nc1ncc(Cc2cccc(Cl)c2)c(N)n1`, the logD was -0.36.

A further data set is described as follows: Compound was evaluated for the partition coefficients probably at the pH >> 7.2 at the aqueous phase 0.1 N NaOH. Conditions: 0.1 N NaOH (aqueous phase).
As for `Nc1ncc(Cc2ccccc2)c(N)n1`, the logD was determined as 1.58.
